Experiment [1] deals with mouse neural stem cells engineered to express MYB-QKI5 (short variant). In words: Cell growth of mouse neural stem cells over a time course. The experiment is classed as cell-based. Particulars: mNSCs expressing MYB-QKI5 (short variant); 0.5 μM or 1 μM; 0, 1, 3, 5 days; in comparison with GFP-expressing mNSCs; FIG. 43C. The protocol:
(§1) FIGS. 43A-D are a set of graphs showing cell growth of mouse neural stem cells expressing GFP (FIG. 43A), truncated MYB (FIG. 43B), MYB-QKI5 (short variant) (FIG. 43C), and MYB-QKI6 (short variant) (FIG. 43D) over a time course (0, 1, 3, and 5 days) in the presence of 0.5 μM or 1 μM of LY2835219 (“CDK4/6 inhibitor”).
(§2) Inhibition of CDK7 was also examined using a specific CDK7 inhibitor THZ1. […] Thus, cells expressing MYB-QKI were sensitive to inhibition of CDK7 by THZ1. This effect is specific with CDK7. […] Thus, cells expressing truncated MYB or MYB-QKI were specifically sensitive to inhibition of CDK7 by THZ1.
(§3) 1,000 cells/well were plated in 96-well plates, with five replicates. Cell viability was measured by assessing ATP content using CellTiter-Glo (Promega). Means±s.e.m. were calculated.

For experiment [2], the system named is mouse neural stem cells engineered to express MYB-QKI6 (short variant). Described as above. It is filed as cell-based. Particulars: mNSCs expressing MYB-QKI6 (short variant); 0.5 μM or 1 μM; 0, 1, 3, 5 days; in comparison with GFP-expressing mNSCs; FIG. 43D. The method, then:
as §1, §2, §3

The test system of experiment [3] is mouse neural stem cells engineered to express truncated MYB. The description is as above. The experiment is classed as cell-based. Particulars: mNSCs expressing truncated MYB; 0.5 μM or 1 μM; 0, 1, 3, 5 days; in comparison with GFP-expressing mNSCs; FIG. 43B. The protocol: as §1, §2, §3
Experiment [4] concerns MYB-QKI5 (short variant) fusion protein. In words: Quantity of protein after treatment with DUB inhibitor. It is filed as cell-based, human. Particulars: after treatment with PR619; FIG. 45. The text has this:
(§4) FIG. 45 is a graph showing the quantity of truncated MYB or MYB-QKI fusion protein after the treatment with PR619.
(§5) Another possible approach of suppressing cells expressing truncated MYB or MYB-QKI is reducing the amount of the truncated MYB or MYB-QKI protein, for example, by increasing the degradation of this protein. DUBs remove ubiquitination and thereby increase the half-life of proteins. Thus, DUB inhibitors may accelerate the degradation of truncated MYB or MYB-QKI.
(§6) Cells were lysed and subjected to SDS-PAGE gradient gels as previously described3l. Blots were probed with antibodies against MYB (ab45150, Abcam at 1:500 dilution), QKI (A300-183A, Bethyl Laboratories at 1:1,000 dilution) and actin (sc-1615, Santa Cruz Biotechnology at 1:2,000 dilution).

Experiment [5] has as its system MYB-QKI6 (short variant) fusion protein. The experiment is described as above. The experiment is classed as cell-based, human. The conditions noted are these: after treatment with PR619; FIG. 45.
Text: as §4, §5, §6

In a further experiment the test system is truncated MYB ("MYBtr"). The experiment is described as above. The conditions noted are these: after treatment with PR619; FIG. 45. It is filed as cell-based, human.
Text: as §4, §5, §6

In experiment [6] the test system is mouse neural stem cells engineered to express MYB-QKI5 (short variant). In words: Percentage viability of mouse neural stem cells after increased doses of inhibitor. It is filed as cell-based. The conditions noted are these: mNSCs expressing MYB-QKI5 (short variant); doses 0, 0.05, 0.1, 0.3, 0.5, 1 μM; in comparison with GFP-expressing mNSCs; FIG. 42C. The method, then:
(§7) FIGS. 42A-D are a set of graphs showing percentage viability of mouse neural stem cells expressing GFP (FIG. 42A), truncated MYB (FIG. 42B), MYB-QKI5 (short variant) (FIG. 42C), and MYB-QKI6 (short variant) (FIG. 42D) after the treatment of increased doses (0, 0.05, 0.1, 0.3, 0.5, and 1 μM) of JQ1, THZ1 (“CDK7i”), and DMSO as negative control.
(§8) FIG. 44 is a graph showing the percentage viability of mouse neural stem cells expressing GFP (“GFP”), truncated MYB (“MYBtr”), MYB-QKI5 (short variant) (“MYBQKI5”), and MYB-QKI6 (short variant) (“MYBQKI6”) after the treatment of increased doses (0, 0.05, 0.1, 0.3, 0.5, and 1 μM) of dasatinib or DMSO as negative control.
(§9) Modifiers of the MYB pathway and key upstream and downstream effectors were examined for their ability to inhibit growth and induce death of cells expressing MYB-QKI fusion protein. […] Thus, cells expressing truncated MYB or MYB-QKI were specifically sensitive to inhibition of BET by JQ1.
as §3

The subject of experiment [7] is mouse neural stem cells engineered to express MYB-QKI6 (short variant). The description is as above. It is filed as cell-based. Particulars: mNSCs expressing MYB-QKI6 (short variant); doses 0, 0.05, 0.1, 0.3, 0.5, 1 μM; in comparison with GFP-expressing mNSCs; FIG. 42D. The method, then:
as §7, §8, §9, §3

The test system of experiment [8] is mouse neural stem cells engineered to express truncated MYB. Described as above. It is filed as cell-based. The conditions noted are these: mNSCs expressing truncated MYB; doses 0, 0.05, 0.1, 0.3, 0.5, 1 μM; in comparison with GFP-expressing mNSCs; FIG. 42B. The method, then: as §7, §8, §9, §3

SMILES strings stand for the structures.

As for `CCN1CCN(Cc2ccc(Nc3ncc(F)c(-c4cc(F)c5nc(C)n(C(C)C)c5c4)n3)nc2)CC1` [LY2835219], the cell growth result in experiment [1], in [2] and in [3] was “did not strongly inhibit the growth” each time.
As for `N#CSc1cc(SC#N)c(N)nc1N` [PR619], the “amount of MYB-QKI5 (short variant) protein” value in experiment [4] is on record as “reduced the amount”. Also, the “amount of MYB-QKI6 (short variant) protein” value in experiment [5] is “reduced the amount”. In addition, the “amount of truncated MYB protein” value in the experiment on truncated MYB ("MYBtr") is on record as “reduced the amount”.
On to `CN(C)C/C=C/C(=O)Nc1ccc(C(=O)Nc2cccc(Nc3ncc(Cl)c(-c4c[nH]c5ccccc45)n3)c2)cc1` [THZ1], for which the viability of cells entry in [6], in [7] and in experiment [8] was “significantly compromised the viability” each time.
Turning to `Cc1sc2c(c1C)C(c1ccc(Cl)cc1)=N[C@@H](CC(=O)OC(C)(C)C)c1nnc(C)n1-2` [JQ1], the viability of cells result in [6], in experiment [7] and in experiment [8] was “significantly compromised the viability” in each case.

Source of the values: US20190062846A1, “COMPOSITIONS AND METHODS FOR SCREENING PEDIATRIC GLIOMAS AND METHODS OF TREATMENT THEREOF” (DANA-FARBER CANCER INSTITUTE, INC., priority 2016, published 2019).
